# Data published in patent US20110045101A1, “FUNGICIDAL SUBSTITUTED AZOLES” (E.I. Du Pont De Nemours and Company, priority 2009, published 2011).
# Marks after values point to notes of the source that are not given here.
# Experiments:
# Assay type in all cases: in vivo
# Septoria tritici = assay: Test G: wheat leaf blotch on wheat seedlings, sprayed the day before inoculation, visual disease rating; settings: 100 = 100% disease control
# Outline: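 Disease was rated visually after Septoria tritici inoculation, 48 h saturated incubation at 24°C and 19 days in a 20°C growth chamber. Inoculation followed one day after run-off spraying of seedlings with compound at 200 ppm (≈500 g/ha) or, where marked, 40 ppm, formulated in acetone/water with surfactant.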
# [1] = test system: Puccinia recondita f. sp. tritici; assay: Test H: wheat leaf rust, test suspension sprayed after inoculation of wheat seedlings, visual disease rating; settings: 100 = 100% disease control
# Description: General protocol for preparing test suspensions for Tests A-J: The test compounds were first dissolved in acetone in an amount equal to 3% of the final volume and then suspended at the desired concentration (in ppm) in acetone and purified water (50/50 mix) containing 250 ppm of the surfactant Trem® 014 (polyhydric alcohol esters). The resulting test suspensions were then used in tests A-J. Spraying a 200 ppm test suspension to the point of run-off on the test plants was the equivalent of a rate of 500 g/ha. […] Wheat seedlings were inoculated with a spore suspension of Puccinia recondita f. sp. tritici (the causal agent of wheat leaf rust) and incubated in a saturated atmosphere at 20° C. for 24 h, and then moved to a growth chamber at 20° C. for 2 days. […] A dash (-) indicates no test results. All results are for 200 ppm except where followed by “*”, which indicates 40 ppm.
# Botrytis cinerea = assay: Test C: tomato Botrytis on tomato seedlings, sprayed the day before inoculation, visual disease rating; settings: 100 = 100% disease control; for pest or weed control at 200 ppm: Botrytis cinerea, 120 h
# Outline: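 Each compound is first taken up in acetone at 3% of the final volume and then brought to the desired ppm in a 50:50 acetone–water mix with 250 ppm surfactant (polyhydric alcohol esters). Tomato seedlings receive the suspension to run-off, normally at 200 ppm, occasionally 40 ppm.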
# Septoria nodorum = assay: Test F: wheat glume blotch on wheat seedlings, sprayed the day before inoculation, visual disease rating; settings: 100 = 100% disease control; for pest or weed control at 200 ppm: Parastagonospora nodorum, 264 h
# Outline: (§1)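 Test rate was 200 ppm, sprayed to run-off and equal to 500 g/ha, or 40 ppm where marked. The compound was first taken up in acetone at 3% of final volume and suspended in acetone/purified water (50/50) containing 250 ppm Trem® 014.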
# Alternaria solani = assay: Test D: tomato early blight, sprayed the day before inoculation, visual disease rating; settings: 100 = 100% disease control; for pest or weed control at 200 ppm: Alternaria solani, 168 h
# Outline: as §1
# [2] = test system: Erysiphe graminis f. sp. tritici; assay: Test J: wheat powdery mildew on wheat seedlings, sprayed the day before inoculation, visual disease rating; settings: 100 = 100% disease control; for pest or weed control at 200 ppm: Blumeria graminis, 168 h
# Outline: as §1
# [3] = test system: Puccinia recondita f. sp. tritici; assay: Test I: wheat leaf rust on wheat seedlings, sprayed the day before inoculation, visual disease rating; settings: 100 = 100% disease control; for pest or weed control at 200 ppm: Puccinia recondita, 168 h
# Outline: as §1
# [4] = 200 ppm, 0 = no control relative to controls
# [5] = 40 ppm (marked *), 0 = no control
Structure (SMILES),Test G disease control rating (Septoria tritici; [4]) [%],"Test H disease control rating [1, 4] [%]",Test C disease control rating (Botrytis cinerea; [4]) [%],Test F disease control rating (Septoria nodorum; [4]) [%],Test D disease control rating (Alternaria solani; [4]) [%],"Test J disease control rating [2, 4] [%]","Test I disease control rating [3, 4] [%]",further results
Fc1cc(-n2c(Cl)nc(CCl)c2-c2ccnc(Br)c2)ccc1Cl [compound 353],8,0,0,0,0,0,41,
Cc1nc(Cl)c(-c2c(F)cccc2F)n1-c1ccc(Cl)c2ccccc12 [compound 304],,,,,,,,"Test G disease control rating (Septoria tritici; [5]): 27* %; Test H disease control rating [1, 5]: 0* %; Test C disease control rating (Botrytis cinerea; [5]): 0* %; Test F disease control rating (Septoria nodorum; [5]): 0* %; Test D disease control rating (Alternaria solani; [5]): 0* %; Test J disease control rating [2, 5]: 0* %; Test I disease control rating [3, 5]: 0* %"
COc1ccc(F)c(-c2c(N(C)C)ncn2Cc2ccc(Cl)cc2)c1F [compound 271],,,,,,,,"Test G disease control rating (Septoria tritici; 200 ppm, 0 = no control): 82%; Test H disease control rating ([1]; 200 ppm, 0 = no control): 0%; Test C disease control rating (Botrytis cinerea; 200 ppm, 0 = no control): 99%; Test F disease control rating (Septoria nodorum; 200 ppm, 0 = no control): 0%; Test D disease control rating (Alternaria solani; 200 ppm, 0 = no control): 9%; Test J disease control rating ([2]; 200 ppm, 0 = no control): 0%; Test I disease control rating ([3]; 200 ppm, 0 = no control): 83%"
Clc1ccc(-c2c(Cl)nc(Cl)n2Cc2cccc(Cl)c2)cc1 [compound 361],93,9,99,0,0,80,74,
Fc1cc(-n2c(Cl)nc(CCl)c2-c2ccc(Br)cn2)ccc1Cl [compound 357],50,0,63,100,0,0,55,
"COc1cc(F)c(-c2c(Cl)nc(C)n2-c2ccc(SC#N)cc2)c(F)c1 [Compound 741, 4-[4-chloro-5-(2,6-difluoro-4-methoxyphenyl)-2-methyl-1H-1-yl]phenyl thiocyanate]",,0,100,92,99,72,99,
Cc1nn(C)c(Cc2cccc(F)c2)c1-c1ccc(F)cc1Cl [compound 311],,100,98,0,9,95,99,
Cc1nn(C)c(Cc2ccc(F)cc2)c1-c1ccc(F)cc1Cl [compound 312],,9,99,0,82,92,99,
Fc1cc(F)c(-c2c(Cl)nc(Cl)n2-c2cccc(OC(F)F)c2)c(F)c1 [compound 597],98,99,100,97,100,100,,
"Cc1nn(C)c(Cc2ccc(F)cc2F)c1-c1ccc(F)cc1Cl [Compound 313, 4-(2-chloro-4-fluorophenyl)-5-[(2,4-difluorophenyl)methyl]-1,3-dimethyl-1H-pyrazole]",,,,,,,,"pest or weed control at 200 ppm ([1]; Puccinia recondita, 96 h, 200 ppm, 0 = no control relative to controls): 95%; pest or weed control at 200 ppm (Botrytis cinerea; [4]): 99%; pest or weed control at 200 ppm (Septoria nodorum; [4]): 0%; pest or weed control at 200 ppm (Alternaria solani; [4]): 100%; pest or weed control at 200 ppm [2, 4]: 99%; pest or weed control at 200 ppm [3, 4]: 100%"
Cc1nc(C)n(-c2ccc(Cl)cc2)c1-c1c(F)cc(F)cc1F [compound 45],,99,100,100,98,100,100,
COc1ccc(Cn2cnc(Cl)c2-c2c(F)cccc2F)cc1 [compound 194],,,,,,,,"Test G disease control rating (Septoria tritici; 200 ppm, 0 = no control): 97%; Test C disease control rating (Botrytis cinerea; 200 ppm, 0 = no control): 99%; Test F disease control rating (Septoria nodorum; 200 ppm, 0 = no control): 73%; Test D disease control rating (Alternaria solani; 200 ppm, 0 = no control): 95%; Test J disease control rating ([2]; 200 ppm, 0 = no control): 96%; Test I disease control rating ([3]; 200 ppm, 0 = no control): 100%"
Cc1nc(Cl)c(-c2c(F)cc(F)cc2F)n1-c1ccc(F)cc1 [compound 167],,,,,,,,"Test G disease control rating (Septoria tritici; [5]): 95* %; Test C disease control rating (Botrytis cinerea; [5]): 99* %; Test F disease control rating (Septoria nodorum; [5]): 0* %; Test D disease control rating (Alternaria solani; [5]): 100* %; Test J disease control rating [2, 5]: 98* %; Test I disease control rating [3, 5]: 0* %"
"COc1ccc(F)c(-c2c(Br)ncn2-c2ccc(F)cc2)c1F [Compound 450, 4-bromo-5-(2,6-difluoro-3-methoxyphenyl)-1-(4-fluorophenyl)-1H-imidazole]",,,,,,,,"pest or weed control at 200 ppm (Septoria tritici; Zymoseptoria tritici, 504 h, 200 ppm, 0 = no control relative to controls): 97%; pest or weed control at 200 ppm (Botrytis cinerea; [4]): 97%; pest or weed control at 200 ppm (Septoria nodorum; [4]): 99%; pest or weed control at 200 ppm (Alternaria solani; [4]): 100%; pest or weed control at 200 ppm [2, 4]: 100%; pest or weed control at 200 ppm [3, 4]: 100%"
Fc1cc(-n2c(Cl)nc(Cl)c2-c2c(F)ccc(F)c2F)ccc1Cl [compound 135],93,,99,0,100,100,100,
COc1cc(F)c(-c2c(C)nc(C)n2-c2ccc(Cl)cc2)c(F)c1 [compound 55],,,,,,,,Test G disease control rating (Septoria tritici; 40 ppm (marked *)): 93* %; Test C disease control rating (Botrytis cinerea; 40 ppm (marked *)): 94* %; Test F disease control rating (Septoria nodorum; 40 ppm (marked *)): 98* %; Test D disease control rating (Alternaria solani; 40 ppm (marked *)): 100* %; Test J disease control rating ([2]; 40 ppm (marked *)): 100* %; Test I disease control rating ([3]; 40 ppm (marked *)): 99* %
Cc1ccc(-n2c(C)nc(Cl)c2-c2c(F)cccc2F)cc1 [compound 82],91,,90,100,100,100,99,
Fc1ccc(Br)c(F)c1-c1c(Cl)ncn1-c1ccc(Cl)cc1 [compound 75],95,,98,0,93,98,77,
CCc1ccc(-n2c(Cl)nc(Cl)c2-c2c(F)ccc(OC)c2F)cc1 [compound 442],95,,99,0,99,100,99,
